Test results taken from US9624161B2 (priority 2009, dated 2017).
Entries after “also recorded” stand apart in the source; their conditions may differ.

Legend:
human males = test: Multiple dose study in human males (100, 300, 600, 1000 mg; days 1-11); type: in vivo
[1] = system: estrogen related receptor (ERR-α, ERR-β and ERR-γ); test: Estrogen related receptor transactivation, DES versus Compound IV; type: cell-based; conditions: FIG. 12C
healthy human subjects = test: Single and multiple dose studies in healthy human subjects; type: in vivo; conditions: for Subjects with decreased total testosterone levels: multiple doses
Protocol: There were observations of elevated ALT levels above the upper limit of normal in four subjects in the multiple dose study (3 subjects in the 1000 mg group and 1 subject in the 600 mg group). The highest single observed value of ALT was 129 IU/L or 2.6 times the upper limit of normal. Aspartate aminotransferase levels were also elevated in this subject to 1.9 times the upper limit of normal.
Serum total testosterone levels were assessed throughout the multiple doses study. Total testosterone levels were decreased in 100% (10/10) of the subjects in the 600 mg dose group and 90% (9/10) of the subjects in the […] dose group. The levels of total testosterone were decreased to below the lower limit of normal in 40% (4/10) of the subjects in the 600 mg dose group and 50% (5/10) of the subjects in the 1000 mg dose group.

[2] = system: sexually mature male cynomolgus monkeys; test: 39-week oral pharmacology and toxicology study in male cynomolgus monkeys (13-week interim); type: in vivo, cynomolgus monkey
rats = test: Gastrointestinal effects after oral administration in rats; type: in vivo, rat
[3] = system: healthy young male volunteers; test: Study 1: 56 day proof of concept study in healthy young male volunteers (600, 1000, 1500 mg); type: in vivo, human; conditions: for BSAP change / FSH change / Free testosterone change / Osteocalcin change / SHBG change / Total testosterone change / serum PSA change: castrated subjects
Protocol: A 56 day, proof of concept study of Compound IV was conducted in healthy young male volunteers. (Table 22 and Table 23 below). […] The free testosterone levels were reduced to levels below the levels expected from surgical castration or those expected from chemical castration with LHRH agonists or antagonists. This is due to a dose dependent increase in sex hormone binding globulin (SHBG) that is observed with Compound IV.

[4] = system: intact and orchiectomized (ORX) male Sprague-Dawley rats; test: Suppression of LH and testosterone in intact and ORX rats, 14-day subcutaneous dosing; type: in vivo, rat; conditions: for Serum testosterone: LLOQ 0.08 ng/mL
Protocol: An in vivo dose-response study was conducted to evaluate the effect of Compound IV on LH suppression in intact and orchiectomized (ORX) male rats.
Male Sprague-Dawley rats weighing approximately 200 g were maintained on a 12-h light/dark cycle with food (2016 Teklad Global 16% Protein Rodent Diet, Harlan, Madison, Wis.) and water available ad libitum. The animal protocol was reviewed and approved by the Institutional Animal Care and Use Committee of the University of Tennessee.
The test article for this study was weighed and dissolved in 10% DMSO (Fisher) diluted with PEG 300 (Acros Organics, NJ) to prepare the appropriate dose formulations. For this study, sixty (60) male Sprague-Dawley rats were randomized by body weight, and assigned to one of the twelve treatment groups (n=5 animals/group). The animals were housed in groups of 2 to 3 animals per cage. Control groups (intact and orchidectomized (ORX)) were administered vehicle daily. […]
After a 14-day dosing regimen, the animals were sacrificed under anesthesia (ketamine/xylazine, 87:13 mg/kg) and body weights were recorded. In addition, ventral prostate, seminal vesicles, and levator ani muscle were removed, cleaned of extraneous tissue, and individually weighed. Organ weight were normalized to body weight and expressed as a percentage of intact control. Blood was collected from the abdominal aorta under isoflurane anesthesia and allowed to clot. Serum was separated by centrifugation and stored at −80° C. prior to determination of serum hormone levels. Serum luteinizing hormone (LH) and follicle stimulating hormone (FSH) concentrations were determined by the Rat Pituitary Luminex Assay (Millipore, Billerica, Mass.) according to manufacturer's directions. The lower limit of quantitation for this assay was 3.2 pg/mL for LH and 32 pg/mL for FSH. Testosterone was measured by a Testosterone EIA (Alpco Diagnostics, Salem, N.H.) with a LLOQ of 0.08 ng/mL. Serum hormone values below the lower limit of quantitation (BLOQ) were omitted from analysis of group means. Therefore, the reported value for LH and T in the groups with samples BLOQ is higher than the actual value. This method of analysis provided the most conservative estimate of LH and T suppression. Fisher's Least Significant Difference test was used to compare individual dose groups to the intact and ORX vehicle control groups. Significance was defined a priori as a P-value <0.05.

[5] = 600 mg, sufficiently compliant subjects
[6] = 1000 mg, sufficiently compliant subjects
[7] = 1500 mg, sufficiently compliant subjects

## O=C(c1ccc(O)c(F)c1)N(c1ccc(O)cc1)c1ccc(F)cc1 [Compound IV, 3-fluoro-N-(4-fluorophenyl)-4-hydroxy-N-(4-hydroxyphenyl)benzamide]
Human males; 10 mg
  Change of PSA level: No changes noted
Human males; 30 mg
  Change of PSA level: No changes noted
Human males; 100 mg
  Decrease of PSA level: 9.2%
  Decrease of free testosterone level: 17.0%
[1]
  Effect on estrogen related receptor (ERR) transactivation: does not; also recorded: failed to crossreact
Healthy human subjects; 600 mg dose group
  Subjects with total testosterone below the lower limit of normal: 40%
  Subjects with decreased total testosterone levels: 100%
Healthy human subjects; 997 mg dose group
  Subjects with decreased total testosterone levels: 90%
Healthy human subjects; 1000 mg dose group
  Subjects with total testosterone below the lower limit of normal: 50%
Healthy human subjects; all subjects
  Time for total testosterone to return to normal after discontinuation: ≤ 6 days
Healthy human subjects; any subject in the trial
  Elevations in total bilirubin: no observations of elevations
Healthy human subjects; healthy human subjects
  Well tolerated single doses: up to 1247 mg
Healthy human subjects; healthy human subjects, up to 10 days
  Well tolerated multiple doses: up to 997 mg
Healthy human subjects; multiple dose study
  Aspartate aminotransferase elevation in the same subject: 1.9 times the upper limit of normal
Healthy human subjects; multiple dose study, 600 mg group
  Subjects with ALT above the upper limit of normal: 1 subject
Healthy human subjects; multiple dose study, 1000 mg group
  Subjects with ALT above the upper limit of normal: 3 subjects
Healthy human subjects; multiple doses study
  Subjects with total testosterone below 1.73 nmol/L (castrate range): no subject
[2]; 100 mg/kg/day oral, after 90 days, Group 4
  Monkeys with testosterone below the limit of quantification: 6 of 10
[2]; any Compound IV dose, up to 100 mg/kg/day
  Initial testosterone flare: not observed
rats; oral 30 mg/kg in rats
  Gastrointestinal motility and gastric acidity: significant increase
rats; oral 30 to 300 mg/kg in rats
  Peristalsis: significant increase
[3]; [5]
  % subjects castrated: 0% ^
  BSAP % change from baseline to final observation: −18.7 ± 18.8%
  FSH % change from baseline to final observation: −48.4 ± 53.9%
  Free testosterone % change from baseline to final observation: −32.9 ± 43.2%
  Osteocalcin % change from baseline to final observation: −32.8 ± 11.1%
  SHBG % change from baseline to final observation: +363 ± 139%
  Total testosterone % change from baseline to final observation: +22.1 ± 51.9%
  serum PSA % change from baseline to final observation: −43.8 ± 21.1%
[3]; 1000 mg
  BSAP change: 6.0 ± 29%
  FSH change: −91 ± 5.2%
  Free testosterone change: −98.2 ± 0.146%
  Osteocalcin change: −20 ± 15%
  SHBG change: 471 ± 102%
  Total testosterone change: −94.7 ± 0.228%
  serum PSA change: −52 ± 28%
[3]; [6]
  % subjects castrated: 75% ^
  BSAP % change from baseline to final observation: −5.97 ± 31.6%
  FSH % change from baseline to final observation: −78.4 ± 29.4%
  Free testosterone % change from baseline to final observation: −86.4 ± 26.4%
  Osteocalcin % change from baseline to final observation: −21.4 ± 14.4%
  SHBG % change from baseline to final observation: +446 ± 130%
  Total testosterone % change from baseline to final observation: −63.0 ± 59.9%
  serum PSA % change from baseline to final observation: −42.8 ± 30.2%
[3]; 1500 mg dose group, by Day 28, sufficiently compliant subjects
  Subjects that reached castrate levels of total testosterone: 90%
[3]; 1500 mg
  BSAP change: −19 ± 21%
  FSH change: −88 ± 4.8%
  Free testosterone change: −97.7 ± 0.155%
  Osteocalcin change: −23 ± 17%
  SHBG change: 524 ± 212%
  Total testosterone change: −92.8 ± 0.65%
  serum PSA change: −43 ± 24%
[3]; [7]
  % subjects castrated: 92% ^
  BSAP % change from baseline to final observation: −21.1 ± 17.0%
  FSH % change from baseline to final observation: −89.7 ± 5.07%
  Free testosterone % change from baseline to final observation: −97.5 ± 1.64%
  Osteocalcin % change from baseline to final observation: −18.2 ± 18.7%
  SHBG % change from baseline to final observation: +591 ± 258%
  Total testosterone % change from baseline to final observation: −90.6 ± 9.67%
  serum PSA % change from baseline to final observation: −48.1 ± 17.0%
[3]; each dose arm (600, 1000, 1500 mg), Study 1
  SHBG increase over baseline: 300-600%
[4]; Intact rats, 10 mg/kg per day s.c., 14 days
  Serum testosterone: BLOQ
[4]; Intact rats, 30 mg/kg per day s.c., 14 days
  Serum testosterone: BLOQ
[4]; ORX rats, all dose groups (0.3-30 mg/kg/day)
  Serum testosterone: BLOQ
[4]; intact male rats, 3, 10 and 300 mg/kg, after 24 h, 72 h and 168 h (FIG. 9)
  Suppression of serum testosterone: Rapid and potent suppression
[4]; intact rats, 14 days s.c.
  Doses with significant reduction of FSH levels: ≥ 10 mg/kg/day
  Doses with significant reduction of testosterone levels: ≥ 3 mg/kg per day
